# Where no end group is shown, it is not given here.
# Assays:
# ATG3 [1] = assay: Reaction (cross-linking) of Ubl activity-based probes with recombinant ATG3 and variants; format: biochemical, human; conditions: probe 15 μM; ATG3 wt, C264A and ΔLIR 5 μM; SDS-PAGE (Figure S9)
# ATG3 [2] = assay: as above; format: biochemical, human; conditions: for Reaction with ATG3 C0: ATG3 C0 (no cysteines) 15 μM; for Reaction with ATG3 C1: ATG3 C1 (only active-site C264) 15 μM; for Reaction with ATG3 ΔLIR: ATG3 C1 ΔLIR (Δ95–111) 15 μM
# Procedure: Figure 1 Modification of ATG3 with GABARAP ABPs depends on LIR^ATG3. a. Characterization of GABARAP activity-based probes, 1 and 2, obtained by hydrazide-acylation. Deconvoluted mass-spectrum (ESI) of GABARAP(ΔG116)–NHNH α-chloroacetyl 1. Expected mass 13707 Da. Deconvoluted mass-spectrum (ESI) of GABARAP(ΔG116)–NHNH methyl-fumarate 2. Expected mass 13743 Da. b. […] The reaction was allowed to proceed for 1 h and was analyzed by SDS-PAGE and Coomassie Blue staining. c. ColabFold-predicted structure of the protein-complex of ATG3 and GABARAP. Side-chain atoms are shown for the predicted LIR motif in ATG3 (90–112). d. Reaction of 2 (15 μM) with ATG3 variants C1, C0, and ΔLIR (15 μM). ATG3 C1 contains only active-site cysteine C264. ATG3 C0 contains no cysteines. ATG3 ΔLIR lacks amino acids 95–111. Reaction was allowed to proceed for 1 h and was analyzed by SDS-PAGE and Coomassie Blue staining. Full-gel images for b and d are available in the Supplementary Information.
# We were intrigued by the cross-linking efficiency of 2 with ATG3 and sought to investigate the origin of this efficiency by generating a C1 variant of ATG3 that only contains the catalytic cysteine 264 and a corresponding C0 variant containing no cysteines. […] In general, the affinity of E2s for their cognate Ubls are quite low, as the thioester transfer from the E1 to the E2 enzyme is facilitated by additional interactions from the UFD domain of the E1 enzyme.[23] […]
# Upon completion the solution was dialyzed against 25 mM
# HEPES, 200 mM NaCl pH 7.2 at 4 °C. Cleaved intein was removed using gravity Ni-NTA purification.
# The flow-through was collected and combined with resin washes. The combined fractions were dialyzed and further purified using ion exchange.
# 3.3. Generation of GABARAP and LC3A hydrazides from SUMO-GABARAP/LC3A-Mxe GyrA-
# SUMO-GABARAP/LC3A-Mxe GyrA-His6 fusion after Ni-NTA purification was dialyzed against intein cleavage buffer (25 mM HEPES, 500 mM NaCl, 1 mM EDTA pH 7.2 at 4 °C). After dialysis hydrazine monohydrate (75 mM) and MESNa (10 mM) was added and the pH adjusted to 7.8. The solution was allowed to stand at room temperature and monitored using LC-MS analysis. Upon completion the solution was dialyzed against 25 mM HEPES, 500 mM NaCl pH 7.2 at 4 °C. SENP1 (1 wt%) was added to cleave the SUMO-tag. The cleaved intein was removed using gravity Ni-NTA purification. […]
# dialyzed and further purified using cation exchange using a buffer 25 mM Tris pH 8.0 and a gradient of […] in the same buffer over 25 column volumes. The product fractions were pooled, concentrated, and stored at –80 °C until further use.
# 3.4. Synthesis of symmetrical anhydrides
# The carboxylic acid was dissolved in CH2Cl2 (300 mM) and dicyclohexylcarbodiimide (0.5 eqiv) was added in one portion. The reaction was stirred under N2 for 18 h. The suspension was filtered and concentrated to ~10% of the initial volume. The solution was placed at 4 °C for 1 h and filtered again.
# The filtrate was concentrated to obtain the symmetrical anhydride which was used without further purification. Anhydrides can be stored at –20 °C for weeks.
# 3.5. Reaction of modified Ubl probes with E2s
# Ubl probes (15 μM) were mixed with E2s (15 μM) in PBS. The mixture was incubated at 37 °C in a water bath for 0.5-3 h. The reaction was quenched by addition of 2x Laemmli buffer and boiled at 95 °C for 5 min. Samples were resolved by SDS-PAGE (8-16%, Bio-Rad) and visualized by […]
# Coomassie staining. […]
# LC3A = biological target: T1, LC3A (Homo sapiens, UniProt Q9H492); assay: Fluorescence polarization binding of fluorescein-modified LIR^ATG3 peptides to LC3A
# T1 construct: His6-SUMO (pOPINS) (N, cleaved yes); made in house; host or cells: E. coli Rosetta-CodonPlus (DE3)-RIL
# From the text: (§1) Figure 2 Characterization of LIR^ATG3. a. Reaction scheme outlining competition assay used for b, c, and d. b. Coomassie Blue-stained SDS-PAGE analysis for reaction of 2 with ATG3 C1 in the presence of varying concentrations of linear LIR^ATG3 peptide 5 as outlined in a. c. Coomassie Blue-stained SDS-PAGE analysis for reaction of 2 with ATG3 C1 in the presence of varying concentrations of cyclized LIR^ATG3 peptide 6 as outlined in a. d. Quantification of competition assays shown in b and c. The amount of GABARAP–ATG3 C1 complex was quantified by gel-densitometry and normalized to the reaction without peptide for each gel. […] Data are presented as average values ± s.d. e. Fluorescence polarization binding-data of fluorescein-modified LIR^ATG3 peptide binding to GABARAP. Either linear, cyclized, or truncated (103–111) LIR^ATG3 peptide was used. […] Fluorescence polarization data of fluorescein-modified LIR^ATG3 peptide binding to LC3A. […]
# (§2) 3.13.Fluorescence polarization measurement
# (§3) Fluorescent peptides were dissolved in DMSO and PBS. The concentration was determined by UV - absorption and extinction coefficient at 280 nm. […] Protein concentration was determined using UV-absorption and extinction coefficient at 280 nm. […]
# (§4) 0.047 μM. […] Fluorescence polarization and intensity was measured on a Victor Nivo Plate Reader (Perkin Elmer). […]
# GABARAP = biological target: T2, GABARAP (Homo sapiens, UniProt O95166); assay: Fluorescence polarization binding of fluorescein-modified LIR^ATG3 peptides to GABARAP; conditions: response letter; truncated LIR peptide (103–111)
# T2 construct: His6-SUMO (pOPINS) (N, cleaved yes); made in house; host or cells: E. coli Rosetta-CodonPlus (DE3)-RIL
# From the text: as §1, §2, §3, §4
# T2 sequence (O95166 whole entry, the tested form may be a part): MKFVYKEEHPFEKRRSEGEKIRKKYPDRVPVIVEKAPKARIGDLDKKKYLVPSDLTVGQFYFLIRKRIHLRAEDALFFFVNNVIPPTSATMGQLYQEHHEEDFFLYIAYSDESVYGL
substance,measurement,setting,value
GABARAP(ΔG116)–NHNH α-chloroacetyl [compound 1],LIR dependence of ATG3 wild-type modification,ATG3 [1],dependent on LIRATG3
same,LIR dependence of cross-linking with ATG3,ATG3 [2]; ATG3 with or without LIR,strictly dependent on LIR^ATG3
same,Cross-linking with ATG3 C1 vs C0,"ATG3 [2]; probe 1 15 μM, ATG3 C1 or C0 15 μM, 1 h (Figure S2)",Cross-linking was only observed for ATG3 C1
LC3A(ΔG120)–NHNH methyl fumarate [compound 4],Reaction with ATG3 C0,"ATG3 [2]; probe 15 μM, SDS-PAGE",no reaction
same,Reaction with ATG3 C1,"ATG3 [2]; probe 15 μM, SDS-PAGE",efficient reaction
same,Reaction with ATG3 ΔLIR,"ATG3 [2]; probe 15 μM, SDS-PAGE",no reaction
LC3A(ΔG120)–NHNH α-chloroacetyl [compound 3],Reaction with ATG3 C0,"ATG3 [2]; probe 15 μM, SDS-PAGE",no reaction
same,Reaction with ATG3 C1,"ATG3 [2]; probe 15 μM, SDS-PAGE",efficient reaction
same,Reaction with ATG3 ΔLIR,"ATG3 [2]; probe 15 μM, SDS-PAGE",no reaction
"Ub(ΔGG)–NHNH methyl fumarate [Ub(ΔGG) methyl fumarate probe, reference compound]",Reaction with ATG3 wt,"ATG3 [2]; probe 15 μM, ATG3 15 μM, 1 h, SDS-PAGE, Coomassie Blue",did not react
"truncated LIR^ATG3: fluorescein-modified truncated (103–111) LIR^ATG3 peptide, amino acids G103-Y111 including the core LIR motif (GDGGWVDTY; also: fluorescein, position not given here)",fold weaker binding of truncated peptide than linear peptide,"LC3A; GABARAP or LC3A not stated, truncated (103–111) vs linear",6 fold
same,"fold weaker affinity of truncated peptide, LC3A","LC3A; response letter, truncated LIR peptide lacking amino acids 104-95",> 8 fold
same,"fold weaker affinity of truncated peptide, GABARAP",GABARAP,> 8 fold

# From publication PMC10214526, “Semisynthetic LC3 Probes for Autophagy Pathways Reveal a Noncanonical LC3 Interacting Region Motif Crucial for the Enzymatic Activity of Human ATG3” (ACS Central Science, 2023)
